In the test the target is T1, KRAS G12C 1-169, his-tagged protein, GDP-loaded (Homo sapiens, UniProt P01116, G12C).
T1 construct: KRAS G12C 1-169, his-tagged protein, GDP-loaded
The experiment in a line: Biochemical assay: covalent modification of KRAS G12C measured by mass spectrometry (RapidFire/TOF or Q-Exactive). The note with it: covalent binding to KRAS G12C. Here is the method:
Test compounds were prepared as 10 mM stock solutions in DMSO (Fisher cat #BP-231-100). KRAS G12C 1-169, his-tagged protein, GDP-loaded was diluted to 2 μm in buffer (20 mM Hepes, 150 mM NaCl, 1 mM MgCl2). Compounds were tested for activity as follows:
Compounds were diluted to 50× final test concentration in DMSO in 96-well storage plates. Compound stock solutions were vortexed before use and observed carefully for any sign of precipitation. Dilutions were as follow: • For 100 μM final compound concentration, compounds were diluted to 5000 μM (5 μl 10 mM compound stock+5 μl DMSO and mixed well by pipetting. • For 30 μM final compound concentration, compounds were diluted to 1500 μM (3 μl 10 mM compound stock+17p DMSO) and mixed well by pipetting. • For 10 μM final compound concentration, compounds were diluted to 500 μM (2 μl 10 mM compound stock+38p DMSO) and mixed well by pipetting. 49p of the stock protein solution was added to each well of a 96-well PCR plate (Fisher cat #1423027). 1 μl of the diluted 50× compounds were added to appropriate wells in the PCR plate using 12-channel pipettor. Reactions were mixed carefully and thoroughly by pipetting up/down with a 200·1 multi-channel pipettor. The plate was sealed well with aluminum plate seal, and stored in drawer at room temperature for 30 min, 2 hour or 24 hrs. 5·1 of 2% formic acid (Fisher cat #A117) in DI H2O was then added to each well followed by mixing with a pipette. The plate was then resealed with aluminum seal and stored on dry ice until analyzed as described below.
The above described assays were analyzed by mass spectrometry according to one of the following two procedures:
The MS instrument is set to positive polarity, 2 GHz resolution, and low mass (1700) mode and allowed to equilibrate for 30 minutes. The instrument is then calibrated, switched to acquisition mode and the appropriate method loaded.
After another 30 minute equilibration time, a blank batch (i.e., buffer) is run to ensure equipment is operating properly. The samples are thawed at 37° C. for 10 minutes, briefly centrifuged, and transfer to the bench top. Wells A1 and H12 are spiked with 1 uL 500 uM internal standard peptide, and the plates centrifuged at 2000×g for 5 minutes. The method is then run and masses of each individual well recorded.
The masses (for which integration data is desired) for each well are pasted into the platemap and exported from the analysis. Masses for the internal standards are exported as well. The data at 50 ppm is extracted for the +19 charge state, and identity of well A1 is assigned using the internal standard spike and integrated. Peak data is exported as a TOF list and the above steps are repeated individually, for the +20, 21, 22, 23, 24, and 25 charge states.
The masses and peak intensities of KRAS G12C protein species were measured using a Dionex RSLCnano system (Thermo Scientific) connected to a Q Exactive Plus mass spectrometer (Thermo Scientific).
[…] of sample was each loaded onto a Aeris™ 3.6 μm WIDEPORE C4 200 Å, LC Column 50×2.1 mm column maintained at 40° C. at a flow rate of 600 μl min^−1 with […] (0.1% formic acid in acetonitrile). The liquid chromatography conditions were 20% solvent B for 1 min, 20% to 60% solvent B for 1.5 min, 60% to 90% solvent for 0.5 min, 90% solvent B for 0.2 min, 90% to 20% solvent B for 0.2 min, and then equilibrated for 1.6 min before the following sample injection. The flow rate was maintained at 600 μl min^−1 throughout the sample analysis.
The mass spectrometer was operated in profile mode at a resolution of 17500, 5 microscans, using 50 msec max injection time and an AGC target of 1e6, and a full mass range from 800-1850 m/z was recorded. The HCD trapping gas was optimized for maximum sensitivity for intact proteins. […]

Take `C=CC(=O)N1CCN(c2nc(OCCc3ccccn3)nc3c(F)c(-c4c(O)cccc4F)c(Cl)cc23)CC1` (atropisomer, axis not shown) [Example I-102, (R)-1-(4-(6-chloro-8-fluoro-7-(2-fluoro-6-hydroxyphenyl)-2-(2-(pyridin-2-yl)ethoxy)quinazolin-4-yl)piperazin-1-yl) prop-2-en-1-one]: where the note is “compounds of structure (I)”, the Binding % result was “+ (+ indicates binding activity up to 50%)”. `C=CC(=O)N1CCN(c2nc(OCCc3ccccn3)nc3c(F)c(-c4c(O)cccc4F)c(Cl)cc23)CC1` (atropisomer, axis not shown) [Example I-103, (S)-1-(4-(6-chloro-8-fluoro-7-(2-fluoro-6-hydroxyphenyl)-2-(2-(pyridin-2-yl)ethoxy)quinazolin-4-yl)piperazin-1-yl) prop-2-en-1-one]: the Binding % entry (compounds of structure (I)) is recorded as “+++ (+++ indicates binding activity greater than 90%)”.

On to `C=CC(=O)N1CCN(c2nc(N3CC(N(C)C)C3)nc3c(F)c(-c4c(O)cccc4F)c(Cl)cc23)CC1` (atropisomer, axis not shown) [Example I-116, (S)-1-(4-(6-chloro-2-(3-(dimethylamino)azetidin-1-yl)-8-fluoro-7-(2-fluoro-6-hydroxyphenyl)quinazolin-4-yl)piperazin-1-yl) prop-2-en-1-one], for which the Binding % entry (compounds of structure (I)) is given as “+++ (+++ indicates binding activity greater than 90%)”. `C=CC(=O)N1CCN(c2nc(N3CC(N(C)C)C3)nc3c(F)c(-c4c(O)cccc4F)c(Cl)cc23)CC1` (atropisomer, axis not shown) [Example I-117, (R)-1-(4-(6-chloro-2-(3-(dimethylamino)azetidin-1-yl)-8-fluoro-7-(2-fluoro-6-hydroxyphenyl)quinazolin-4-yl)piperazin-1-yl) prop-2-en-1-one]: the Binding % result (compounds of structure (I)) is “+ (+ indicates binding activity up to 50%)”. `C=CC(=O)N1CCN(c2nc(OCCN3CC(F)(F)C3)nc3c(F)c(-c4c(O)cccc4F)c(Cl)cc23)CC1` (atropisomer, axis not shown) [Example I-125, (S)-1-(4-(6-chloro-2-(2-(3,3-difluoro-azetidin-1-yl)ethoxy)-8-fluoro-7-(2-fluoro-6-hydroxyphenyl)quinazolin-4-yl)piperazin-1-yl) prop-2-en-1-one]: the Binding % result (compounds of structure (I)) was “+++ (+++ indicates binding activity greater than 90%)”. Same read-out and setting: to `C=CC(=O)N1CCN(c2nc(OCCN3CC(F)(F)C3)nc3c(F)c(-c4c(O)cccc4F)c(Cl)cc23)CC1` (atropisomer, axis not shown) [Example I-126, (R)-1-(4-(6-chloro-2-(2-(3,3-difluoro-azetidin-1-yl)ethoxy)-8-fluoro-7-(2-fluoro-6-hydroxyphenyl)quinazolin-4-yl)piperazin-1-yl) prop-2-en-1-one] belongs “+ (+ indicates binding activity up to 50%)”.

For `C=CC(=O)N1C[C@@H](C)N(c2ncnc3c(F)c(-c4c(O)cccc4F)c(Cl)cc23)[C@@H](C)C1` (atropisomer, axis not shown) [III-4, 1-((3S,5R)-4-((R)-6-chloro-8-fluoro-7-(2-fluoro-6-hydroxy-phenyl)quinazolin-4-yl)-3,5-dimethyl-piperazin-1-yl)prop-2-en-1-one], the Binding % entry (compounds of structure (III)) is given as “+ (+ indicates binding activity up to 50%)”. `C=CC(=O)N1[C@H](C)CN(c2ncnc3c(F)c(-c4c(O)cccc4F)c(Cl)cc23)C[C@@H]1C` (atropisomer, axis not shown) [III-6]: the Binding % entry (compounds of structure (III)) is “+++ (+++ indicates binding activity greater than 90%)”. In the case of `C=CC(=O)N1C[C@@H](C)N(c2ncnc3c(F)c(-c4c(O)cccc4F)c(Cl)cc23)[C@@H](C)C1` (atropisomer, axis not shown) [III-36], the Binding % entry (compounds of structure (III)) is given as “+++ (+++ indicates binding activity greater than 90%)”. Turning to `C=CC(=O)N1CCN(c2nc(OCCN3CCCC3=O)nc3c(F)c(-c4c(C)ccc5[nH]ncc45)c(Cl)cc23)CC1` [Example I-1, 1-(2-(4-(4-acryloylpiperazin-1-yl)-6-chloro-8-fluoro-7-(5-methyl-1H-indazol-4-yl)quinazolin-2-yloxy)ethyl) pyrrolidin-2-one], the Binding % result (compounds of structure (I)) is “+++ (+++ indicates binding activity greater than 90%)”. Same read-out and setting: to `Cc1ccc2[nH]ncc2c1-c1c(Cl)cc2c(N3CCN(C(=O)/C=C/CN(C)C)CC3)nc(OCCN3CCCC3=O)nc2c1F` [Example I-2, (E)-1-(2-(6-chloro-4-(4-(4-(dimethylamino)but-2-enoyl)piperazin-1-yl)-8-fluoro-7-(5-methyl-1H-indazol-4-yl)quinazolin-2-yloxy)ethyl) pyrrolidin-2-one] belongs “+ (+ indicates binding activity up to 50%)”; to `C=CC(=O)N1CCN(c2nc(NC3CCN(C)CC3)nc3c(F)c(-c4c(O)cccc4F)c(Cl)cc23)CC1` [Example I-3, 1-(4-(6-chloro-8-fluoro-7-(2-fluoro-6-hydroxyphenyl)-2-(1-methylpiperidin-4-ylamino)quinazolin-4-yl)piperazin-1-yl) prop-2-en-1-one], “+++ (+++ indicates binding activity greater than 90%)”; to `C=CC(=O)N1CCN(c2nc(OCC(=O)N(C)C)nc3c(F)c(-c4c(C)ccc5[nH]ncc45)c(Cl)cc23)CC1` [Example I-4, 2-(4-(4-acryloylpiperazin-1-yl)-6-chloro-8-fluoro-7-(5-methyl-1H-indazol-4-yl)quinazolin-2-yloxy)-N,N-dimethyl-acetamide], “++ (++ indicates binding activity from 50 to 90%)”. As to `C=CC(=O)N1CCN(c2nc(NCCO)nc3c(F)c(-c4c(C)ccc5[nH]ncc45)c(Cl)cc23)CC1` [Example I-5, 1-(4-(6-chloro-8-fluoro-2-(2-hydroxyethyl-amino)-7-(5-methyl-1H-indazol-4-yl)quinazolin-4-yl)piperazin-1-yl)prop-2-en-1-one], the Binding % result (compounds of structure (I)) was “+ (+ indicates binding activity up to 50%)”.

As to `C=CC(=O)N1CCN(c2nc(OCCn3ccnc3C)nc3c(F)c(-c4c(C)ccc5[nH]ncc45)c(Cl)cc23)CC1` [Example I-6, 1-(4-(6-chloro-8-fluoro-2-(2-(2-methyl-1H-imidazol-1-yl)ethoxy)-7-(5-methyl-1H-indazol-4-yl)quinazolin-4-yl)piperazin-1-yl)prop-2-en-1-one], under “compounds of structure (I)”, the Binding % entry is on record as “+++ (+++ indicates binding activity greater than 90%)”.

On to `C=CC(=O)N1CCN(c2nc(OCCn3ccnc3)nc3c(F)c(-c4c(C)ccc5[nH]ncc45)c(Cl)cc23)CC1` [Example I-7, 1-(4-(2-(2-(1H-imidazol-1-yl)ethoxy)-6-chloro-8-fluoro-7-(5-methyl-1H-indazol-4-yl)quinazolin-4-yl)piperazin-1-yl)prop-2-en-1-one], for which, where the note is “compounds of structure (I)”, the Binding % result was “++ (++ indicates binding activity from 50 to 90%)”.

For the molecule `C=CC(=O)N1CCN(c2nc(OCC(=O)N(C)C)nc3c(F)c(-c4c(O)cccc4F)c(Cl)cc23)CC1` [Example I-8, 2-(4-(4-acryloyl-piperazin-1-yl)-6-chloro-8-fluoro-7-(2-fluoro-6-hydroxyphenyl)quinazolin-2-yloxy)-N,N-dimethyl-acetamide], the Binding % result (compounds of structure (I)) is “+++ (+++ indicates binding activity greater than 90%)”. With `C=CC(=O)Oc1cccc(F)c1-c1c(Cl)cc2c(N3CCN(C(=O)C=C)CC3)nc(OCC(=O)N(C)C)nc2c1F` [Example I-9, 2-(4-(4-acryloyl-piperazin-1-yl)-6-chloro-2-(2-(dimethylamino)-2-oxoethoxy)-8-fluoroquinazolin-7-yl)-3-fluorophenyl acrylate], the Binding % result (compounds of structure (I)) is recorded as “++ (++ indicates binding activity from 50 to 90%)”.

The record behind these values is US10829458B2 (Araxes Pharma LLC, priority 2015, dated 2020).
